Results from publication PMC6259456, “Inhibitory Effects of Phylligenin and Quebrachitol Isolated from Mitrephora vulpina on Platelet Activating Factor Receptor Binding and Platelet Aggregation” (Molecules, 2010).
Where two headings read alike, the source gives them in different places.

Target: T1, platelet activating factor (PAF) receptor (Oryctolagus cuniculus, UniProt G1TEI7)
T1 construct: gene PTAFR; native receptor on washed rabbit platelets
Assay: 3H-PAF radioligand displacement on washed rabbit platelets
Format: cell-based

T1 sequence (G1TEI7 1-342): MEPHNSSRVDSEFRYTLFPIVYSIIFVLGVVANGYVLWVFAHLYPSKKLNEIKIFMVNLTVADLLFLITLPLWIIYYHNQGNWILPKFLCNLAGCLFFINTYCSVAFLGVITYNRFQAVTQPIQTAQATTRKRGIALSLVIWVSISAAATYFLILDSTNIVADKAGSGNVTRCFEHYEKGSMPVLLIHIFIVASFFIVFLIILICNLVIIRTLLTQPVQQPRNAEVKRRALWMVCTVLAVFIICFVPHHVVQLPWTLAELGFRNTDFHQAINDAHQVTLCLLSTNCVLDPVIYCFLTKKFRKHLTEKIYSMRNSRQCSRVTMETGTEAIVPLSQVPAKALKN

IC50 (read-out: IC50)	Structure (SMILES)	IC50
10.6 µM	C[C@@H]1CC[C@H]2C(C)(C)[C@H]3C[C@@]12CC[C@@]3(C)O [cedrol, reference compound]	
	COc1cc([C@H]2OC[C@H]3[C@@H]2CO[C@H]3c2ccc(OC)c(OC)c2)ccc1O [phylligenin]	13.1 µM
42.2 µM	CO[C@H]1[C@H](O)[C@@H](O)[C@H](O)[C@H](O)[C@H]1O [quebrachitol, 2-O-methyl-L-chiro-inositol]	
